# Test system: KB cells
# Assay: EGFR driven KB cell proliferation assay, Test (b)
# Format: cell-based
# Conditions: Homo sapiens, 96 h, EGF 1 ng/ml, 4 days, MTT
# Experimental: This assay measures the ability of a test compound to inhibit the proliferation of KB cells (human naso-pharangeal carcinoma obtained from the American Type Culture Collection (ATCC).
# KB cells (human naso-pharangeal carcinoma obtained from the ATCC were cultured in Dulbecco's modified Eagle's medium (DMEM) containing 10% foetal calf serum, 2 mM glutamine and non-essential amino acids at 37° C. in a 7.5% CO2 air incubator. Cells were harvested from the stock flasks using Trypsin/ethylaminediaminetetraacetic acid (EDTA). Cell density was measured using a haemocytometer and viability was calculated using trypan blue solution before being seeded at a density of 1.25×10^3 cells per well of a 96 well plate in DMEM containing 2.5% charcoal stripped serum, 1 mM glutamine and non-essential amino acids at 37° C. in 7.5% CO2 and allowed to settle for 4 hours.
# Following adhesion to the plate, the cells are treated with or without EGF (final concentration of 1 ng/ml) and with or without compound at a range of concentrations in dimethylsulfoxide (DMSO) (0.1% fial) before incubation for 4 days. Following the incubation period, cell numbers were determined by addition of 50 μl of 3-(4,5-Dimethylthiazol-2-yl)-2,5-diphenyltetrazolium bromide (MTT) (stock 5 mg/ml) for 2 hours. MTT solution was then tipped off, the plate gently tapped dry and the cells dissolved upon the addition of 100 μl of DMSO.
# Absorbance of the solubilised cells was read at 540 nm using a Molecular Devices ThermoMax microplate reader. Inhibition of proliferation was expressed as an IC50 value. This was determined by calculation of the concentration of compound that was required to give 50% inhibition of proliferation. The range of proliferation was calculated from the positive (vehicle plus EGF) and negative (vehicle minus EGF) control values.
row,IC50 [nM],SMILES
1,144,"COc1cc2ncnc(Nc3cccc(Cl)c3F)c2cc1O[C@H]1C[C@H](C(=O)NCCNC(C)=O)N(C)C1 [Compound 11-13, (4S)—N-[2-(acetylamino)ethyl]-4-({4-[(3-chloro-2-fluorophenyl)amino]-7-methoxyquinazolin-6-yl}oxy)-1-methyl-D-prolinamide]"
2,139,"COc1cc2ncnc(Nc3cccc(Cl)c3F)c2cc1O[C@H]1C[C@H](C(=O)N[C@H]2COC[C@@H]2O)N(C)C1 [Compound 11-14, (4S)-4-({4-[(3-chloro-2-fluorophenyl)amino]-7-methoxyquinazolin-6-yl}oxy)-N-[(3S,4R)-4-hydroxytetrahydrofuran-3-yl]-1-methyl-D-prolinamide]"
3,63,COc1cc2ncnc(Nc3cccc(Cl)c3F)c2cc1O[C@@H]1C[C@@H](C(=O)NCCC#N)N(C)C1 [Compound 13-3]

# — patent US20070043010A1, “Quinazoline derivatives” (ASTRAZENECA UK LIMITED, priority 2003, published 2007)
